Measurements reported in ChEMBL document CHEMBL6096678, “Targeting QPCTL: An Emerging Therapeutic Opportunity” (J Med Chem, 2025).

Tests used:
[1] = molecular target: Glutaminyl-peptide cyclotransferase (Homo sapiens, UniProt Q16769); assay: Binding affinity to QPCT (unknown origin) assessed as inhibition constant
[2] = molecular target: T1, Glutaminyl-peptide cyclotransferase-like protein (Homo sapiens, UniProt Q9NXS2); assay: Binding affinity to QPTCL (unknown origin) assessed as inhibition constant
T1 sequence (Q9NXS2 whole entry): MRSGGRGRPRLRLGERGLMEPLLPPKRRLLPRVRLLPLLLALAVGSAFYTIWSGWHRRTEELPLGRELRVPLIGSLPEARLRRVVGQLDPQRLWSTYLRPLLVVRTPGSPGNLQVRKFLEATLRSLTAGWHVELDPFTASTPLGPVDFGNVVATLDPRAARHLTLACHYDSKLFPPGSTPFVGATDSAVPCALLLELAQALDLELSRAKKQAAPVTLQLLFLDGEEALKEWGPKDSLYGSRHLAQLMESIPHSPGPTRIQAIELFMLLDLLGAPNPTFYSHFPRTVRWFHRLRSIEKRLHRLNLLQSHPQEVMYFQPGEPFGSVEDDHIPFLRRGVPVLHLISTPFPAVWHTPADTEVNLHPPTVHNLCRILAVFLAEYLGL

[3] = molecular target: T1, Glutaminyl-peptide cyclotransferase-like protein; assay: Inhibition of QPCTL (unknown origin)
[4] = molecular target: T1, Glutaminyl-peptide cyclotransferase-like protein; assay: Binding affinity to QPCTL (unknown origin) extracted from Escherichia coli BL21 (DE3) assessed as inhibition constant
[5] = molecular target: T1, Glutaminyl-peptide cyclotransferase-like protein; assay: Binding affinity to QPCTL (unknown origin) assessed as dissociation constant

Glutaminyl-peptide cyclotransferase, sequence (Q16769 whole entry): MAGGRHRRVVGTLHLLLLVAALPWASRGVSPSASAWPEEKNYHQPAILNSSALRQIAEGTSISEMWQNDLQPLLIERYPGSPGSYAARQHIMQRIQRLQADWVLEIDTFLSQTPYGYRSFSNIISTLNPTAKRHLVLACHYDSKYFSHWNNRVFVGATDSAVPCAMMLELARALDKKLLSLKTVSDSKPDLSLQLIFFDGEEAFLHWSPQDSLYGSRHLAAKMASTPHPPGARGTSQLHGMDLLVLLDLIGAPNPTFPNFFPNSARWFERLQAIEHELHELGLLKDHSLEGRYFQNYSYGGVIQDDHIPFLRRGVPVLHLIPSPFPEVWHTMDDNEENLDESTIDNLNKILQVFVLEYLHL

CCCOc1ccc(C2c3c(nn(C)c3C)C(=O)N2c2ccc3[nH]cnc3c2)c(F)c1 (configuration not stated)
Ki [1]: < 100 nM | Ki [2]: < 25 nM

Cc1ccc(-c2ccsc2)c(N2CCC(c3nnc(N)n3C)CC2)n1
IC50 [3]: < 1 nM

O=C1[C@H](O)[C@H](c2c(F)cc(-c3cnn(C(F)F)c3)cc2F)N1c1ccc2[nH]cnc2c1
Ki [2]: < 2 nM

Cn1ccnc1 [1-METHYLIMIDAZOLE]
Ki [4]: 79000 nM

O=c1cc(-c2ccc(O)c(O)c2)oc2cc(O)cc(O)c12 [LUTEOLIN]
Kd [5]: 9400 nM

CCCOc1ccc([C@H]2CNC(=O)N2c2ccc3[nH]cnc3c2)cc1 [VAROGLUTAMSTAT]
Ki [2]: 5 nM
